# Data as given in PubChem BioAssay AID212 (DTP/NCI, 2004).
# Several values for one entry are separate records, joined by “and”; a condition that tells them apart may be missing. Equal entries are not always repeated. Records with an inconclusive call do not appear.
# Test system: BDF1 mice, colon carcinoma 38 sc, T/C %
# Assay: NCI In Vivo Anticancer Drug Screen. Data for tumor model Colon Carcinoma 38 (subcutaneous) in B6D2F1 (BDF1) mice
# Settings: endpoint: median tumor weight (est.), higher = larger tumour
# How it was run: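 T/C readout: treated group (T) measurement over vehicle control group (C) measurement. Endpoint is survival or tumor size in mice bearing a transplanted tumor.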
# [1] = dose: 100.0 mg/kg/injection, schedule: Q07DX002 (ip), vehicle: saline
# [2] = dose: 200.0 mg/kg/injection, schedule: Q07DX002 (ip), vehicle: saline
compound,measurement,setting,value
NC1=NCN(C2OC(CO)C(O)C2O)C(=O)N1 (stereo unspecified),T/C,"dose: 25.0 mg/kg/injection, schedule: Q07DX003 (ip), vehicle: saline",57 % of control and 71 % of control
same,T/C,"dose: 50.0 mg/kg/injection, schedule: Q07DX003 (ip), vehicle: saline",60 % of control and 79 % of control
same,T/C,"dose: 100.0 mg/kg/injection, schedule: Q07DX003 (ip), vehicle: saline",54 % of control and 75 % of control
same,T/C,"dose: 400.0 mg/kg/injection, schedule: Q07DX003 (ip), vehicle: saline",57 % of control and 58 % of control
same,T/C,"dose: 600.0 mg/kg/injection, schedule: Q07DX003 (ip), vehicle: saline",94 % of control
same,T/C,"dose: 1000.0 mg/kg/injection, schedule: Q07DX003 (ip), vehicle: saline",79 % of control
same,T/C,"dose: 1200.0 mg/kg/injection, schedule: Q07DX003 (ip), vehicle: saline",63 % of control
same,T/C,"dose: 1400.0 mg/kg/injection, schedule: Q07DX003 (ip), vehicle: saline",84 % of control
same,T/C,"dose: 1600.0 mg/kg/injection, schedule: Q07DX003 (ip), vehicle: saline",47 % of control
Cc1c2cc[n+](C)cc2c(C)c2c1[nH]c1ccc(O)cc12,T/C,"dose: 0.12 mg/kg/injection, schedule: Q07DX002 (ip), vehicle: water",119 % of control
same,T/C,"dose: 0.25 mg/kg/injection, schedule: Q07DX002 (ip), vehicle: water",62 % of control
same,T/C,"dose: 0.5 mg/kg/injection, schedule: Q07DX002 (ip), vehicle: water",69 % of control
same,T/C,"dose: 0.63 mg/kg/injection, schedule: Q07DX002 (ip), vehicle: water",67 % of control
same,T/C,"dose: 1.0 mg/kg/injection, schedule: Q07DX002 (ip), vehicle: water",123 % of control
same,T/C,"dose: 1.25 mg/kg/injection, schedule: Q07DX002 (ip), vehicle: water",52 % of control
same,T/C,"dose: 1.5 mg/kg/injection, schedule: Q07DX002 (ip), vehicle: water",116 % of control
same,T/C,"dose: 2.5 mg/kg/injection, schedule: Q07DX002 (ip), vehicle: water",72 % of control
same,T/C,"dose: 3.0 mg/kg/injection, schedule: Q07DX002 (ip), vehicle: water",122 % of control
same,T/C,"dose: 4.0 mg/kg/injection, schedule: Q07DX002 (ip), vehicle: water",70 % of control
same,T/C,"dose: 5.0 mg/kg/injection, schedule: Q07DX002 (ip), vehicle: water",71 % of control
c1cnc2ncncc2n1,T/C,"dose: 6.25 mg/kg/injection, schedule: Q07DX002 (ip), vehicle: saline with Tween-80",88 % of control
same,T/C,"dose: 12.5 mg/kg/injection, schedule: Q07DX002 (ip), vehicle: saline with Tween-80",83 % of control and 95 % of control
same,T/C,"dose: 100.0 mg/kg/injection, schedule: Q07DX002 (ip), vehicle: saline with Tween-80",80 % of control and 89 % of control
same,T/C,[1],124 % of control
same,T/C,"dose: 200.0 mg/kg/injection, schedule: Q07DX002 (ip), vehicle: saline with Tween-80",73 % of control and 88 % of control
same,T/C,[2],181 % of control
Oc1c(Cl)cc(Cl)cc1C=NCCSc1ccc(Cl)cc1,T/C,"dose: 50.0 mg/kg/injection, schedule: Q07DX002 (ip), vehicle: Klucel (hydroxypropylcellulose) (HPC)",85 % of control
same,T/C,"dose: 100.0 mg/kg/injection, schedule: Q07DX002 (ip), vehicle: Klucel (hydroxypropylcellulose) (HPC)",78 % of control
same,T/C,"dose: 200.0 mg/kg/injection, schedule: Q07DX002 (ip), vehicle: Klucel (hydroxypropylcellulose) (HPC)",162 % of control
Nc1n[n+](-c2ccc(Cl)cc2)no1,T/C,"dose: 6.25 mg/kg/injection, schedule: Q07DX002 (ip), vehicle: water",64 % of control and 78 % of control
same,T/C,"dose: 12.5 mg/kg/injection, schedule: Q07DX002 (ip), vehicle: water",85 % of control and 87 % of control
same,T/C,"dose: 25.0 mg/kg/injection, schedule: Q07DX002 (ip), vehicle: water",57 % of control
same,T/C,"dose: 50.0 mg/kg/injection, schedule: Q07DX002 (ip), vehicle: water",119 % of control
CCOc1cc2c(cc1C(C)c1ccc(OC)cc1)OCO2 (stereo unspecified),T/C,"dose: 50.0 mg/kg/injection, schedule: Q07DX002 (ip), vehicle: distilled water + Tween-80 + alcohol",72 % of control
same,T/C,"dose: 100.0 mg/kg/injection, schedule: Q07DX002 (ip), vehicle: distilled water + Tween-80 + alcohol",100 % of control
same,T/C,"dose: 400.0 mg/kg/injection, schedule: Q07DX002 (ip), vehicle: distilled water + Tween-80 + alcohol",100 % of control
O=C1C(NCCO)=C(N2CC2)C(=O)C(NCCO)=C1N1CC1,T/C,"dose: 0.12 mg/kg/injection, schedule: Q07DX002 (ip), vehicle: saline",83 % of control and 91 % of control
same,T/C,"dose: 0.25 mg/kg/injection, schedule: Q07DX002 (ip), vehicle: saline",92 % of control
N=c1nc2n(cc1F)[C@@H]1O[C@H](CO)[C@@H](O)[C@@H]1O2,T/C,[1],118 % of control
same,T/C,"dose: 100.0 mg/kg/injection, schedule: Q07DX002 (ip), vehicle: suspension in saline",117 % of control
same,T/C,[2],193 % of control
same,T/C,"dose: 200.0 mg/kg/injection, schedule: Q07DX002 (ip), vehicle: suspension in saline",93 % of control
same,T/C,"dose: 400.0 mg/kg/injection, schedule: Q07DX002 (ip), vehicle: suspension in saline",99 % of control
same,T/C,"dose: 800.0 mg/kg/injection, schedule: Q07DX002 (ip), vehicle: saline",102 % of control
same,T/C,"dose: 1600.0 mg/kg/injection, schedule: Q07DX002 (ip), vehicle: saline",53 % of control
same,T/C,"dose: 1600.0 mg/kg/injection, schedule: Q07DX002 (ip), vehicle: suspension in saline",40 % of control
